Measured values published in patent US9005646B2, “Compositions for repair of defects in tissues, and methods of making the same” (LifeNet Health, priority 2005, dated 2015).

What was measured:
athymic nude mice = test: Osteoinductivity bioassay of irradiated compositions with radioprotectant, implanted into athymic nude mice; format: in vivo; settings: for Passed Osteoinductivity: radioprotectant added to homogenized fascia slurry of tissue repair composition, post-gamma irradiation, implanted into athymic nude mice
Excerpt: (§1) Multiple radioprotectants (Table 1) were investigated over a range of concentrations and the handling characteristics of the resultant products were semi-quantitatively analyzed post-gamma irradiation. Those products that passed the semi-quantitative analysis went on to be implanted into athymic nude mice as a bioassay to assess osteoinductivity.
The method to add the radioprotectant was consistent for each radioprotectant investigated. The slurry was made as described in example 1 (heating and blending cycles) and once completed, the radioprotectant of choice was added to the slurry in the form it was supplied from the manufacturer (powder or liquid).

[1] = Semi-quantitative analysis of handling characteristics post-gamma irradiation; format: physicochemical; settings: putty/paste tissue repair composition; sterilizing dose of gamma irradiation; 100 mM where radioprotectant present
Excerpt: To meet the current U.S. FDA regulatory standards and market expectations, a product must be sterile to a sterility assurance level of 1×10^−6 (SAL). […] The composition crumbled apart releasing the bone matrix.
In order to manufacture a tissue repair composition, in the form of a putty/paste, having desirable handling characteristics post-irradiation at dose designed to achieve a SAL of 1×10^−6, it was thought that the addition of one or more radioprotectants to the composition would produce a product with the desirable handling properties because the radioprotectant will act as a free radical scavenger during the irradiation sterilization process and would protect the handling characteristics of the putty/paste composition. An addition facet was that the radioprotectant must not negatively interfere with the biological activity over time (shelf life).
as §1

Compound | impact on osteoinductivity (athymic nude mice; 100 mM radioprotectant in composition, after sterilizing dose of gamma irradiation) | Passed Osteoinductivity (athymic nude mice) | handling characteristics after gamma irradiation [1]
N=C(N)NN [Aminoguanidine] | no negative impact | Yes | no negative impact
L-Ascorbic Acid, salt |  | Yes | 
L-Ascorbic Acid 2-phosphate sesquimagnesium salt |  | Yes | 
